# PubChem BioAssay (NCI)
#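 Each compound was tested at five concentrations against cells in 96-well plates for 48 hours. GI50 = concentration required for 50% inhibition of growth. TGI: total growth inhibition.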
# Tests used:
# Assay in all cases: NCI-60 cell line screen, 48 h
# [1] = tested on: KM12 colon
# [2] = tested on: OVCAR-3 ovarian
# [3] = tested on: RPMI-8226 leukemia
# [4] = tested on: SW-620 colon
# [5] = tested on: UACC-257 melanoma
# [6] = tested on: HS 578T breast
# [7] = tested on: MCF7 breast
# [8] = tested on: MDA-MB-435
# [9] = tested on: NCI/ADR-RES ovarian
# [10] = tested on: HOP-92 NSCLC
SMILES,TGI [1] [µM],TGI [2] [µM],TGI [3] [µM],TGI [4] [µM],TGI [5] [µM],GI50 [6] [µM],TGI [6] [µM],GI50 [1] [µM],GI50 [7] [µM],TGI [7] [µM],GI50 [8] [µM],TGI [8] [µM],GI50 [9] [µM],TGI [9] [µM],GI50 [2] [µM],GI50 [3] [µM],GI50 [4] [µM],GI50 [5] [µM],GI50 [10] [µM],TGI [10] [µM]
O=C(Cc1ccccc1)NN1C(=O)C(Cl)C1c1ccc(Cl)cc1 (centres undefined),> 100,> 100,> 100,> 100,> 100,–,–,–,–,–,–,–,–,–,–,–,–,–,–,–
Cn1cc(C2=C(c3ccsc3)C(=O)NC2=O)c2ccccc21,> 25,> 25,> 25,> 25,> 25,> 25,> 25,> 25,1.58,> 25,> 25,> 25,> 25,> 25,17.2,> 25,> 25,> 25,–,–
CC1(OCc2ccccc2)C(=O)N2C1NCC2(C)C (centres undefined),–,> 100,> 100,> 100,> 100,–,–,–,–,–,–,–,–,–,–,–,–,–,–,–
O=C([CH-]C(=O)c1ccccc1)c1ccccc1.O=C([CH-]C(=O)c1ccccc1)c1ccccc1.O=C([CH-]C(=O)c1ccccc1)c1ccccc1.[Ga+3],> 100,> 100,> 100,> 100,> 100,–,–,91.5,–,–,–,–,–,–,> 100,27,65.1,93.3,> 100,> 100
C[C@@H]1CN2[C@H]3[C@@H]1CC[C@]31CCC(=O)O[C@]1(C)[C@H]1CC[C@H]3CCC=C3[C@@H]12,> 30,> 30,> 30,> 30,–,> 30,> 30,> 30,> 30,> 30,> 30,> 30,> 30,> 30,> 30,> 30,> 30,–,> 30,> 30
NS(=O)(=O)c1ccc(N(/C=C/C(=O)C(F)(F)F)CC(=O)c2ccc(F)cc2)cc1,57.9,47.3,55.8,46.6,72.8,–,–,24.5,> 100,> 100,26.5,79.6,18.2,41.6,19.7,19.5,21.5,22,21.3,60.9
COc1ccc(C(=O)C(C(=O)CCC(=O)Nc2ccc(Cl)c(Cl)c2)c2ccc(OC)cc2)cc1 (centres undefined),> 100,> 100,> 100,> 100,> 100,–,–,–,–,–,–,–,–,–,–,–,–,–,–,> 100
O=c1[nH]c2ccccc2n1C1CCNCC1,> 100,> 100,> 100,> 100,> 100,> 100,> 100,> 100,> 100,> 100,> 100,> 100,> 100,> 100,> 100,> 100,> 100,> 100,–,–
C/C(CN1C(=O)c2ccccc2C1=O)=N\NS(=O)(=O)c1ccc2ccccc2c1,> 100,> 100,> 100,> 100,> 100,–,–,–,–,–,–,–,–,–,–,–,–,–,–,–
Cc1ccc(S(=O)c2ccccc2[N+](=O)[O-])cc1 (centres undefined),> 100,> 100,> 100,> 100,> 100,–,–,–,–,–,–,–,–,–,–,–,–,–,–,> 100
Cn1ncnc1[C@@H]1c2n[nH]c(=O)c3cc(F)cc(c23)N[C@H]1c1ccc(F)cc1,> 100,> 100,> 100,> 100,–,> 100,> 100,> 100,> 100,> 100,> 100,> 100,> 100,> 100,> 100,> 100,> 100,–,92.6,> 100
C[C@@H]1C(=O)CC2C(C)(C)CCC[C@]2(C)[C@@]12CC[C@]1(C=COC1)O2 (some centres undefined),> 100,> 100,–,> 100,–,–,–,–,–,–,–,–,–,–,–,–,–,–,–,48
CN(C)CCC(N)(P(=O)([O-])[O-])P(=O)([O-])[O-].N.N.[Pt+2],> 100,> 100,> 100,> 100,> 100,–,–,> 100,–,–,–,–,–,–,> 100,> 100,> 100,> 100,> 100,> 100
NC(N)NCCCc1cn2c(n1)C1CCCN1C(=O)C2Cc1ccccc1 (centres undefined),> 100,> 100,> 100,> 100,> 100,–,–,–,–,–,–,–,–,–,–,–,–,–,–,–
CN(C)CC1CC/C(=C\c2ccc(Cl)c(Cl)c2)C1=O (centres undefined),35.7,> 61.5,8.92,> 51.6,> 60.9,–,–,–,–,–,–,–,–,–,–,–,–,–,–,48.2
O=C(CCc1nnc2s/c(=C\c3ccc([N+](=O)[O-])cc3)c(=O)n12)Nc1ccc(Cl)c(Cl)c1,31.2,27,46.5,58.4,> 100,–,–,–,–,–,–,–,–,–,–,–,–,–,–,> 100
CC(=O)/C(=C\c1ccc(Cl)cc1)c1ccccc1,> 100,0.229,25.9,> 64.6,–,0.0832,> 100,0.054,0.0375,> 100,–,–,2.07,> 100,0.0383,0.133,0.0445,–,0.12,> 26.2
C=CCc1cccc(C=O)c1O,–,–,> 100,> 100,> 100,> 100,> 100,–,7.9,> 100,> 100,> 100,20.4,> 100,–,7.72,50.6,> 100,0.809,59
CC(=O)C1(O)CC2(c3ccccc3)C(=O)C1(c1ccccc1)C(c1ccccc1)=C2c1ccccc1 (centres undefined),> 100,> 100,> 100,> 100,> 100,–,–,–,–,–,–,–,–,–,–,–,–,–,–,> 100
